Experimental data: patent publication US12540150B1, “Fluorogenic probe using a Mislow-Evans rearrangement for real-time imaging of hydrogen peroxide” (University of Pittsburgh—Of the Commonwealth System of …, priority 2020, dated 2026)
Several values for one entry are separate records, joined by “and”; a condition that tells them apart may be missing. Equal entries are not always repeated. Where two headings read alike, the source gives them in different places.

Tests used:
[1] = 100 nM in water
Protocol: The pH dependence of phenol 5 was also investigated. Phenol 5 was dissolved in water to a concentration of 100 nM. This solution (100 mL) was titrated with HCl and NaOH. The pH was measured after each addition before measuring the fluorescence using a Horiba FluoroMax3 fluorescence spectrometer. Fluorescence was measured using 1 nm slit widths with an excitation wavelength of 496 nm and an emission wavelength of 510 nm, the results of which are shown in FIG. 23 and Table 15.

[2] = Fluorescence intensity of selenide 1 and phenol 5; type: physicochemical; conditions: pH 7
Protocol: All fluorescence measurements (excitation 490 nm, emission 510-570 nm) were carried out using a Promega Biosystems Modulus II Microplate Reader or a HoribaMax Fluorometer unless otherwise stated. Data analysis was performed using GraphPad Prism 8.
The fluorescence intensity of selenide 1 and phenol 5 were investigated. Solutions containing ultrapure water (681 μL), […] phosphate pH 7 buffer (31 μL), DMSO (28.1 μL), and 80 μM 1 or phenol 5 in DMSO (9.4 μL) were made. Aliquots of these solutions (200 μL) were transferred to the wells of a black 96-well plate and the fluorescence was measured. As evident from FIG. 10 and Table 1, the difference in fluorescence intensity of probe 1 and phenol 5, is 27-fold. Generally, O-alkylation of Pittsburgh Green suppresses the fluorescence by 200-400 fold. The somewhat modest fluorescence increase in the current system is attributed to the trace contamination of the fluorescent compound 5 during the purification of the nonfluorescent probe 1.

[3] = system: RAW cells; experiment: Imaging of endogenous H2O2 upon ionomycin stimulation in RAW cells; type: cell-based; conditions: 5 μM probe
Source text: After detecting exogenously added H2O2 in cells, the focus shifted to more biologically relevant, endogenous H2O2. It was attempted to monitor endogenous H2O2 production upon stimulation with ionomycin in RAW cells. […] In contrast, with probe 1, a significant response was observed within 30 s after the addition of ionomycin relative to the baseline fluorescence (FIG. 24B-C) and peaked at 48 s.

O=c1ccc2c(-c3ccccc3CO)c3ccc(O)cc3oc-2c1 [Compound 5]
Fluorescence Intensity ([1]; pH 3.99): 920
Fluorescence Intensity ([1]; pH 4.20): 930
Fluorescence Intensity ([1]; pH 4.33): 1,070
Fluorescence Intensity ([1]; pH 4.48): 1,450
Fluorescence Intensity ([1]; pH 4.65): 1,440
Fluorescence Intensity ([1]; pH 4.77): 1,670
Fluorescence Intensity ([1]; pH 5.07): 2,790
Fluorescence Intensity ([1]; pH 5.51): 5,280
Fluorescence Intensity ([1]; pH 5.69): 7,130
Fluorescence Intensity ([1]; pH 5.90): 10,250
Fluorescence Intensity ([1]; pH 6.30): 18,790
Fluorescence Intensity ([1]; pH 6.38): 18,720
Fluorescence Intensity ([1]; pH 6.48): 22,820
Fluorescence Intensity ([1]; pH 6.80): 27,620
Fluorescence Intensity ([1]; pH 6.90): 31,730
Fluorescence Intensity ([1]; pH 7.11): 34,510
Fluorescence Intensity ([1]; pH 7.18): 35,740
Fluorescence Intensity ([1]; pH 7.69): 39,880
Fluorescence Intensity ([1]; pH 8.31): 41,950
Fluorescence Intensity ([1]; pH 8.63): 42,930
Fluorescence Intensity ([1]; pH 8.88): 44,240
Fluorescence Intensity ([1]; pH 9.00): 43,280
Fluorescence Intensity ([1]; pH 9.09): 43,110
Fluorescence Intensity ([1]; pH 9.15): 43,140
Fluorescence Intensity ([1]; pH 9.32): 43,550
Fluorescence Intensity ([1]; pH 9.40): 43,850
Fluorescence Intensity ([1]; pH 9.49): 43,340
Fluorescence Intensity ([1]; pH 9.56): 45,080
Fluorescence Intensity ([1]; pH 9.61): 44,640
Fluorescence Intensity ([1]; pH 9.71): 43,930
Fluorescence Intensity ([1]; pH 9.75): 42,610
Fluorescence Intensity ([1]; pH 9.83): 44,070
Fluorescence Intensity ([1]; pH 9.92): 43,670
Fluorescence Intensity ([1]; pH 10.01): 41,900
Fluorescence Intensity ([1]; pH 10.10): 42,170
Fluorescence Intensity ([1]; pH 10.22): 42,800
Fluorescence Intensity ([1]; pH 10.33): 42,170
Fluorescence Intensity ([1]; pH 10.43): 42,570
Fluorescence Intensity ([1]; pH 10.48): 42,410
Fluorescence Intensity ([1]; pH 10.59): 40,450
Fluorescence Intensity ([1]; pH 10.68): 41,370
Fluorescence Intensity ([1]; pH 10.75): 40,520
Fluorescence Intensity ([1]; pH 10.85): 40,140
Fluorescence Intensity ([1]; pH 10.91): 38,790
Fluorescence Intensity [2]: 244,687 and 247,204 and 246,848

CC(=O)Oc1cc2c(cc1Cl)C(c1ccccc1C(=O)O)c1cc(Cl)c(OC(C)=O)cc1O2 [dihydrodichlorofluorescein acetate, reference compound]
fluorescence response upon ionomycin addition [3]: fluorescence increase could hardly be observed
